{"source": "patent US10105437B2", "about": "“Epitopes related to coeliac disease” (BTG International Limited, priority 2004, dated 2018)"}
{"test_system": "PBMC from HLA-DQ2+ coeliac subjects", "experiment": "Interferon gamma ELISPOT, secalin 20mer first round library after rye challenge", "type": "cell-based, human", "details": "20mers pre-treated with tTG; day 6 PBMC; 14 subjects", "protocol": "(§1) Peptides were initially dissolved in aqueous acetonitrile (50%). Peptides in aqueous acetonitrile were transferred to sterile 96-well plates and diluted in sterile PBS with 1 mM calcium (250 mcg/ml) and then incubated with tTG (25 mcg/ml) (Sigma T5398) for 6 h 37° C. and then stored frozen (−20° C.) until use.\n(§2) IFNγ ELISpot assays (Mabtech, Sweden) were performed in 96-well plates (MAIP S-45, Millipore) in which each well contained 25 mcl of peptide solution and 100 mcl of PBMC (2-8×10^5/well) in RPMI containing 10% heat inactivated human AB serum. After development and drying, IFNγ ELISpot plates were assessed using the MAIP automated ELISpot plate counter. Data was then analysed according to a novel algorithm (Expectation Maximization: EM) to define and quantify interferon-gamma responses to 9mer sequences contained within the peptide library (see FIG. 3 and below). 9mer peptides were then rationalised according to an algorithm that assumes redundancy in T-cell recognition, the “IterativeCluster” algorithm (see FIG. 4 and below), by allowing groups of amino acids with similar chemical properties at any one position in the 9mer, or for glutamate to replace glutamine at any position (assuming deamidation may have occurred).\n(§3) Secalin and hordein 20mer first round peptide libraries were assessed 3 days after completing rye (bread, 100 g/d for 3 days) or barley (boiled, 100 g/d for 3 days) challenge (“day 6” PBMC interferon gamma ELISPOT responses). Although iterative analysis using 2nd and 3rd round peptide libraries to define epitopes has not yet been performed, the 20mers pre-treated with tTG found to induce “potent” responses shared substantial structural similarity to the bioactive peptides identified after wheat challenge. […] The dominant (>70% maximal response) 20mer after rye challenge was usually […] (SEQ ID NO: 1769) (8/14 subjects), or occasionally […] (SEQ ID NO: 1770) (4/14), […] (SEQ ID NO: 1771) (1/14), […] (SEQ ID NO: 1772) (1/14) and/or […] (SEQ ID NO: 1773) (1/14). Additional peptides noted for greater than 40% maximal response in at least 1 subject include: […]"}
{"sequence": "PQTQQPQQPFPQPQQPQQLF (Description of Artificial Sequence: Synthetic gluten peptide) [rye secalin 20mer]", "subjects in whom 20mer was dominant (>70% maximal response) after rye challenge": "1/14"}
{"sequence": "QPFPQPQQPTPIQPQQPFPQ (Description of Artificial Sequence: Synthetic gluten peptide) [rye secalin 20mer]", "subjects in whom 20mer was dominant (>70% maximal response) after rye challenge": "4/14"}
{"sequence": "QEQREGVQILLPQSHQQLVG (Description of Artificial Sequence: Synthetic gluten peptide) [rye secalin 20mer]", "subjects in whom 20mer was dominant (>70% maximal response) after rye challenge": "1/14"}
{"test_system": "PBMC from HLA-DQ2+ coeliac subjects", "experiment": "Interferon gamma ELISPOT, secalin 20mer first round library after rye challenge", "type": "cell-based, human", "details": "after rye challenge; 14 subjects", "protocol": "as §1, §2, §3"}
{"sequence": "QQPSIQLSLQQQLNPCKNVL (Description of Artificial Sequence: Synthetic gluten peptide) [rye secalin 20mer]", "number of subjects with > 70% maximal response": 1, "subjects with greater than 40% maximal response": "1/14"}
{"sequence": "VGPSGQVSWPQQQPLPQPQQ (Description of Artificial Sequence: Synthetic gluten peptide) [rye secalin 20mer]", "number of subjects with > 70% maximal response": 2, "subjects with greater than 40% maximal response": "2/14"}
{"sequence": "FPQQPQQPFPQPQQQLPLQP (Description of Artificial Sequence: Synthetic gluten peptide) [rye secalin 20mer]", "number of subjects with > 70% maximal response": 2, "subjects with greater than 40% maximal response": "3/14"}
{"sequence": "PQQPQRPFAQQPEQIISQQP (Description of Artificial Sequence: Synthetic gluten peptide) [rye secalin 20mer]", "number of subjects with > 70% maximal response": 1, "subjects with greater than 40% maximal response": "3/14"}
{"sequence": "SIPQPQQPFPQPQQPFPQSQ (Description of Artificial Sequence: Synthetic gluten peptide) [rye secalin 20mer]", "number of subjects with > 70% maximal response": 1, "subjects with greater than 40% maximal response": "4/14"}
{"sequence": "NMQVGPSGQVEWPQQQPLPQ (Description of Artificial Sequence: Synthetic gluten peptide) [rye secalin 20mer]", "number of subjects with > 70% maximal response": 1, "subjects with greater than 40% maximal response": "2/14"}
{"test_system": "PBMC from HLA-DQ2+ coeliac subjects", "experiment": "Interferon gamma ELISPOT, hordein 20mer first round library after barley challenge", "type": "cell-based, human", "set-up": "key to individual peptide showing maximal response in a single individual (asterisk): *: an asterisk indicates the eight individual peptides showing maximal response in a single individual", "details": "not given", "protocol": "as §1, §2\n(§4) Secalin and hordein 20mer first round peptide libraries were assessed 3 days after completing rye (bread, 100 g/d for 3 days) or barley (boiled, 100 g/d for 3 days) challenge (“day 6” PBMC interferon gamma ELISPOT responses). Although iterative analysis using 2nd and 3rd round peptide libraries to define epitopes has not yet been performed, the 20mers pre-treated with tTG found to induce “potent” responses shared substantial structural similarity to the bioactive peptides identified after wheat challenge. […] The dominant (>70% maximal response) 20mer after rye challenge was usually […] (SEQ ID NO: 1769) (8/14 subjects), or occasionally […] (SEQ ID NO: 1770) (4/14), […] (SEQ ID NO: 1771) (1/14), […] (SEQ ID NO: 1772) (1/14) and/or […] (SEQ ID NO: 1773) (1/14). Additional peptides noted for greater than 40% maximal response in at least 1 subject include:\n(§5) Typically, the dominant peptides after barley challenge included one of six peptide motifs, or were one of eight other individual 20mers “dominant” in only one of 17 subjects after barley challenge. The six motifs identified:\n(§6) The barley hordein peptides showing at least 40% maximal peptide response in at least one subject include the following, wherein an asterisk indicates the eight individual peptides showing maximal response in a single individual: […]"}
{"sequence": "PYLPEELSPQYQIPTPLQPQ (Description of Artificial Sequence: Synthetic gluten peptide) [barley hordein 20mer]", "individual peptide showing maximal response in a single individual (asterisk)": "*"}
{"sequence": "PQQPQQPFPQPQQPFSWQPQ (Description of Artificial Sequence: Synthetic gluten peptide) [barley hordein 20mer]", "individual peptide showing maximal response in a single individual (asterisk)": "*"}
{"sequence": "PQQPPFWPQQPFPQQPPFGL (Description of Artificial Sequence: Synthetic gluten peptide) [barley hordein 20mer]", "individual peptide showing maximal response in a single individual (asterisk)": "*"}
{"test_system": "PBMC from HLA-DQ2+ coeliac subjects", "experiment": "Interferon gamma ELISPOT, hordein 20mer first round library after barley challenge", "type": "cell-based, human", "set-up": "key to individual peptide showing maximal response in a single individual (asterisk): *: an asterisk indicates the eight individual peptides showing maximal response in a single individual", "details": "17 subjects", "protocol": "as §1, §2, §4, §5, §6"}
{"sequence": "FQQPQQSYPVQPQQPFPQPQ (Description of Artificial Sequence: Synthetic gluten peptide) [barley hordein 20mer]", "number of subjects with > 70% maximal response": 1, "subjects with at least 40% maximal peptide response": "3/17"}
{"sequence": "PQQASPLQPQPQQASPLQPQ (Description of Artificial Sequence: Synthetic gluten peptide) [barley hordein 20mer]", "number of subjects with > 70% maximal response": 1, "subjects with at least 40% maximal peptide response": "1/17"}
{"sequence": "PYLPEELSPQYQIPTPLQPQ (Description of Artificial Sequence: Synthetic gluten peptide) [barley hordein 20mer]", "number of subjects with > 70% maximal response": 1, "subjects with at least 40% maximal peptide response": "1/17"}
{"sequence": "PFPQPQQPFSWQPQQPFLQP (Description of Artificial Sequence: Synthetic gluten peptide) [barley hordein 20mer]", "number of subjects with > 70% maximal response": 0, "subjects with at least 40% maximal peptide response": "1/17"}
{"sequence": "PQPFPQQPIPQQPQPYPQQP (Description of Artificial Sequence: Synthetic gluten peptide) [barley hordein 20mer]", "number of subjects with > 70% maximal response": 2, "subjects with at least 40% maximal peptide response": "6/17"}
{"sequence": "QPQQPQPFPQQPVPQQPQPY (Description of Artificial Sequence: Synthetic gluten peptide) [barley hordein 20mer]", "number of subjects with > 70% maximal response": 2, "subjects with at least 40% maximal peptide response": "5/17"}
{"sequence": "RQLPKYIIPQQPQQPFLLQP (Description of Artificial Sequence: Synthetic gluten peptide) [barley hordein 20mer]", "number of subjects with > 70% maximal response": 1, "subjects with at least 40% maximal peptide response": "1/17"}
{"sequence": "PQQPQQPFPQPQQPFSWQPQ (Description of Artificial Sequence: Synthetic gluten peptide) [barley hordein 20mer]", "number of subjects with > 70% maximal response": 2, "subjects with at least 40% maximal peptide response": "6/17"}
{"sequence": "PFPQPQQPFPWQPQQPFPQP (Description of Artificial Sequence: Synthetic gluten peptide) [barley hordein 20mer]", "number of subjects with > 70% maximal response": 0, "subjects with at least 40% maximal peptide response": "6/17"}
{"sequence": "FPQPQEPFPQQPQQPFPLQP (Description of Artificial Sequence: Synthetic gluten peptide) [barley hordein 20mer]", "number of subjects with > 70% maximal response": 0, "subjects with at least 40% maximal peptide response": "1/17"}
{"sequence": "PWQPQQPFPQPQEPIPQQPQ (Description of Artificial Sequence: Synthetic gluten peptide) [barley hordein 20mer]", "number of subjects with > 70% maximal response": 1, "subjects with at least 40% maximal peptide response": "1/17"}
{"sequence": "QPFPTPQQFFPYLPQQTFPP (Description of Artificial Sequence: Synthetic gluten peptide) [barley hordein 20mer]", "number of subjects with > 70% maximal response": 1, "subjects with at least 40% maximal peptide response": "4/17"}
{"sequence": "PQQPPFWPQQPFPQQPPFGL (Description of Artificial Sequence: Synthetic gluten peptide) [barley hordein 20mer]", "number of subjects with > 70% maximal response": 1, "subjects with at least 40% maximal peptide response": "1/17"}
{"sequence": "PFPQPPQQKYPEQPQQPFPW (Description of Artificial Sequence: Synthetic gluten peptide) [barley hordein 20mer]", "number of subjects with > 70% maximal response": 1, "subjects with at least 40% maximal peptide response": "1/17"}
{"sequence": "QQPQPFSQQPIPQQPQPYPQ (Description of Artificial Sequence: Synthetic gluten peptide) [barley hordein 20mer]", "number of subjects with > 70% maximal response": 8, "subjects with at least 40% maximal peptide response": "9/17"}
{"sequence": "LAAQLPAMCRLEGGGGLLAS (Description of Artificial Sequence: Synthetic gluten peptide) [barley hordein 20mer]", "number of subjects with > 70% maximal response": 1, "subjects with at least 40% maximal peptide response": "1/17"}
{"sequence": "SPLQPQQPFPQGSEQIIPQQ (Description of Artificial Sequence: Synthetic gluten peptide) [barley hordein 20mer]", "number of subjects with > 70% maximal response": 0, "subjects with at least 40% maximal peptide response": "1/17"}
{"sequence": "PQQPVPQQPQPYPQQPQPFP (Description of Artificial Sequence: Synthetic gluten peptide) [barley hordein 20mer]", "number of subjects with > 70% maximal response": 1, "subjects with at least 40% maximal peptide response": "5/17"}
{"sequence": "PVLSQQQPCTQDQTPLLQEQ (Description of Artificial Sequence: Synthetic gluten peptide) [barley hordein 20mer]", "number of subjects with > 70% maximal response": 1, "subjects with at least 40% maximal peptide response": "1/17"}
{"sequence": "FPLQPQQPFPQQPQQPFPQQ (Description of Artificial Sequence: Synthetic gluten peptide) [barley hordein 20mer]", "number of subjects with > 70% maximal response": 0, "subjects with at least 40% maximal peptide response": "1/17"}
{"sequence": "QPFPQPQQPFPWQPQQPFPQ (Description of Artificial Sequence: Synthetic gluten peptide) [barley hordein 20mer]", "number of subjects with > 70% maximal response": 2, "subjects with at least 40% maximal peptide response": "10/17"}
{"sequence": "QIPYVHPSILQQLNPCKVFL (Description of Artificial Sequence: Synthetic gluten peptide) [barley hordein 20mer]", "number of subjects with > 70% maximal response": 1, "subjects with at least 40% maximal peptide response": "1/17"}
